The source of these data is patent US8614214B2, “Pyrazole amide compounds and uses thereof” (Sinochem Corporation, priority 2010, dated 2013).

Common to all, as to assay type: in vivo
One assay concerns corn rust. Put plainly: Greenhouse pot seedling assay, corn rust. The settings on record: for Control (%): comparative test, Table 20; for control of corn rust: 400 ppm, greenhouse.
A further assay concerns rice blast. As to conditions: 600 ppm, field.
Assay [1] concerns cucumber downy mildew. Briefly: Greenhouse pot seedling assay, cucumber downy mildew. As to conditions: for Control (%): comparative test, Table 18; for control of cucumber downy mildew: 400 ppm, greenhouse.
Assay [2] concerns cucumber downy mildew. Put plainly: Persistence comparative test against cucumber downy mildew (greenhouse).
Assay [3] relates to cucumber downy mildew. Put plainly: Field trial against cucumber downy mildew. The settings on record: for Control (%) average: average of 3 replicates; for Control (%) I: replicate I; for Control (%) II: replicate II; for Control (%) III: replicate III. Here is the method: The trial was carried out in a greenhouse in July 2011 in […] district, Shanxi Province. Before the treatment, the cucumber plants were at the beginning of infection. The trial method was based on the National Standard of the People's Republic of China-“Pesticide-Guidelines for The Field Efficacy Trials”. […] The Area of plot was 15 m^2, random arrangement and 3 times replication. The volume was about 600 L/hm^2, and water was as the control. Efficacy calculation method is as follows: [formula] [formula]

`Fc1ccc([C@]2(Cn3cncn3)O[C@H]2c2ccccc2Cl)cc1` (racemic) [epoxiconazole, reference compound]: the “Control (%)” value in the assay with corn rust (3.13 ppm) worked out at 40%; in the assay on corn rust (6.25 ppm) it was 75%; in the assay on corn rust (12.5 ppm), 90%; in the assay on corn rust (25 ppm) it was 95%; in the assay on corn rust (50 ppm) it was 100%; in the assay on corn rust (100 ppm), 100%.

For the compound `CCCc1nn(C)c(C(=O)NCc2ccc(OCC(=O)Nc3ccccc3C(=O)NC)cc2)c1Cl` [Compound 17], the “control of corn rust” value in the assay with corn rust came out at 100%.

In the case of `O=[N+]([O-])c1cc(C(F)(F)F)c(Cl)c([N+](=O)[O-])c1Nc1ncc(C(F)(F)F)cc1Cl` [fluazinam, reference compound], the “Control (%) average” value in the assay on rice blast (average of 3 replicates) amounted to 75%. The “Control (%) I” value in the assay on rice blast (replicate I) is on record as 70%. Further, in the assay on rice blast (replicate II), the “Control (%) II” value is given as 75%. Besides, in the assay on rice blast (replicate III), the “Control (%) III” value is 80%.

Consider `CCOC(=O)c1cccc(C)c1NC(=O)COc1ccc(CNC(=O)c2c(Cl)c(C)nn2C)cc1` [Compound 94], for which, in the assay with corn rust, the “control of corn rust” value turned out to be 100%.

Take `COc1ccc(C(=CC(=O)N2CCOCC2)c2ccc(Cl)cc2)cc1OC` [dimethomorph, reference compound]: the “Control (%)” value in the assay on cucumber downy mildew [1] (6.25 ppm) is on record as 29%; in the assay on cucumber downy mildew [1] (12.5 ppm), 74%; with cucumber downy mildew [1] (25 ppm), 85%; in the assay with cucumber downy mildew [1] (50 ppm), 88%; in the assay on cucumber downy mildew [1] (100 ppm), 100%; with cucumber downy mildew [2] (25 ppm, inoculation 3 days after treatment), 0%. Moreover, the “Control (%)” value stood at 0% in the assay with cucumber downy mildew [2] (25 ppm, inoculation 7 days after treatment); 30% in the assay with cucumber downy mildew [2] (50 ppm, inoculation 3 days after treatment); 0% in the assay on cucumber downy mildew [2] (50 ppm, inoculation 7 days after treatment); 44% in the assay with cucumber downy mildew [2] (100 ppm, inoculation 3 days after treatment); 0% in the assay on cucumber downy mildew [2] (100 ppm, inoculation 7 days after treatment); 74% in the assay with cucumber downy mildew [2] (200 ppm, inoculation 3 days after treatment). Further, the “Control (%)” value stood at 44% in the assay with cucumber downy mildew [2] (200 ppm, inoculation 7 days after treatment); 100% in the assay with cucumber downy mildew [2] (400 ppm, inoculation 3 days after treatment); 74% in the assay on cucumber downy mildew [2] (400 ppm, inoculation 7 days after treatment). The “Control (%) average” value in the assay on cucumber downy mildew [3] (200 ppm) was 53%. Further, in the assay on cucumber downy mildew [3] (200 ppm), the “Control (%) I” value came to 44%. In the assay on cucumber downy mildew [3] (200 ppm), the “Control (%) II” value is given as 52%. In the assay with cucumber downy mildew [3] (200 ppm), the “Control (%) III” value was 63%.

Turning to `COCC(=O)N(c1c(C)cccc1C)C(C)C(=O)OC` (stereo not drawn) [metalaxyl, reference compound], the “Control (%)” value with cucumber downy mildew [1] (6.25 ppm) stood at 0%; in the assay with cucumber downy mildew [1] (12.5 ppm), 7%; in the assay with cucumber downy mildew [1] (25 ppm), 22%; in the assay with cucumber downy mildew [1] (50 ppm), 29%; with cucumber downy mildew [1] (100 ppm), 59%.

`Cc1nn(C)c(C(=O)NCc2ccc(OCC(=O)Nc3ccccc3C(N)=O)cc2)c1Cl` [Compound 156]: the “control of corn rust” value in the assay on corn rust was found to be 100%.

Regarding `CCOC(=O)c1ccccc1NC(=O)COc1ccc(CNC(=O)c2c(Cl)c(CC)nn2C)cc1` [Compound 99], the “control of corn rust” value in the assay with corn rust turned out to be 100%.

For `CCc1nn(C)c(C(=O)NCc2ccc(O[C@@H](C)C(=O)Nc3ccccc3C(=O)NC)cc2)c1Cl` [Compound 69], the “control of cucumber downy mildew” value in the assay on cucumber downy mildew [1] was determined as 100%. Further, the “control of corn rust” value in the assay with corn rust came to 100%.

With `N#Cc1c(Cl)c(Cl)c(Cl)c(C#N)c1Cl` [chlorothalonil, reference compound], in the assay on cucumber downy mildew [3] (800 ppm), the “Control (%) average” value is given as 74%, the “Control (%) I” value amounted to 68%, the “Control (%) II” value is 73% and the “Control (%) III” value was determined as 81%.

In the case of `CCc1nn(C)c(C(=O)NCc2ccc(O[C@H](C)C(=O)Nc3ccccc3C(=O)NC)cc2)c1Cl` [Compound 66], the “control of cucumber downy mildew” value with cucumber downy mildew [1] turned out to be 100%. The “control of corn rust” value in the assay with corn rust is on record as 100%.

Consider `C[C@@]1(c2ccc(Oc3ccccc3)cc2)OC(=O)N(Nc2ccccc2)C1=O` (racemic) [famoxadone, reference compound], for which the “Control (%)” value amounted to 14% in the assay on cucumber downy mildew [1] (6.25 ppm); 22% in the assay with cucumber downy mildew [1] (12.5 ppm); 51% in the assay with cucumber downy mildew [1] (25 ppm); 74% with cucumber downy mildew [1] (50 ppm); 81% in the assay on cucumber downy mildew [1] (100 ppm).
